PubChem BioAssay (NCI)
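The compound was tested at five concentrations on cells cultured in 96-well plates, with a 48-hour exposure period. TGI is the concentration that stops growth completely.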

How the values were obtained:
Assay in all cases: NCI anticancer screen, dose series, 48 h
786-0 renal = system: 786-0 renal
A498 renal = system: A498 renal
A549 NSCLC = system: A549 NSCLC
ACHN renal = system: ACHN renal
CAKI-1 renal = system: CAKI-1 renal
CCRF-CEM leukemia = system: CCRF-CEM leukemia
COLO 205 colon = system: COLO 205 colon
DLD-1 colon = system: DLD-1 colon
DMS 273 small cell lung = system: DMS 273 small cell lung
EKVX NSCLC = system: EKVX NSCLC
HCC-2998 colon = system: HCC-2998 colon
HCT-116 colon = system: HCT-116 colon
HCT-15 colon = system: HCT-15 colon
HL-60(TB) leukemia = system: HL-60(TB) leukemia
HOP-18 NSCLC = system: HOP-18 NSCLC
HOP-62 NSCLC = system: HOP-62 NSCLC
HOP-92 NSCLC = system: HOP-92 NSCLC
HT29 colon = system: HT29 colon
IGROV1 ovarian = system: IGROV1 ovarian
KM12 colon = system: KM12 colon
KM20L2 colon = system: KM20L2 colon
LOX IMVI melanoma = system: LOX IMVI melanoma
LXFL 529 NSCLC = system: LXFL 529 NSCLC
M14 melanoma = system: M14 melanoma
M19-MEL melanoma = system: M19-MEL melanoma
MALME-3M melanoma = system: MALME-3M melanoma
MOLT-4 leukemia = system: MOLT-4 leukemia
NCI-H226 lung = system: NCI-H226 lung
NCI-H460 lung = system: NCI-H460 lung
NCI-H522 lung = system: NCI-H522 lung
OVCAR-3 ovarian = system: OVCAR-3 ovarian
OVCAR-4 ovarian = system: OVCAR-4 ovarian
OVCAR-5 ovarian = system: OVCAR-5 ovarian
OVCAR-8 ovarian = system: OVCAR-8 ovarian
RPMI-8226 leukemia = system: RPMI-8226 leukemia
RXF 393 renal = system: RXF 393 renal
SF-268 CNS = system: SF-268 CNS
SF-295 CNS = system: SF-295 CNS
SF-539 CNS = system: SF-539 CNS
SK-MEL-28 melanoma = system: SK-MEL-28 melanoma
SK-MEL-5 melanoma = system: SK-MEL-5 melanoma
SK-OV-3 ovarian = system: SK-OV-3 ovarian
SN12C renal = system: SN12C renal
SNB-19 CNS = system: SNB-19 CNS
SNB-75 CNS = system: SNB-75 CNS
SNB-78 CNS = system: SNB-78 CNS
SR leukemia = system: SR leukemia
SW-620 colon = system: SW-620 colon
TK-10 renal = system: TK-10 renal
U251 CNS = system: U251 CNS
UACC-257 melanoma = system: UACC-257 melanoma
UACC-62 melanoma = system: UACC-62 melanoma
UO-31 renal = system: UO-31 renal

Measured: TGI

C[C@]12CCC(=O)C(O)=C1CCC2=O
> 100 µM: all assays above
